Experimental data: patent USRE32534E, “Peptides, process for preparing the same and psychodepressant compositions containing the same” (Amano Pharmaceutical Co., Ltd., priority 1982, dated 1987)
Where a SMILES comes first, the peptide text is derived from it.

Legend:
Format in all cases: in vivo
[1] = test system: test animals; assay: Induction of catalepsy in test animals
[2] = Induction of yawning behavior by the peptide itself; settings: yawning thought to be induced by a reduction in the amount of dopamine
[3] = test system: male Wister rats; assay: Effect on yawning behavior induced by apomorphine; settings: s.c.
Procedure: Effect on yawning behavior
Male Wister rats (weighing 200 to 300 g) were used, with 10 rats in each group. The rat was placed into a plastics cage (17×24×12 cm) with a floor mat and was then habituated for 30 minutes. Peptide A, peptide B, CCK-8 or the above-mentioned diluent serving as a control was subcutaneously given to the animal. Thirty minutes thereafter, 0.03 mg/kg of apomorphine was subcutaneously given to the animal. The number of yawns induced by apomorphine was counted during a period of 30 minutes following administration of apomorphine. The test was conducted in a soundproof compartment for each animal. Wilcoxon rank-sum test was resorted to for statistical treatment.

[4] = test system: Male ddy mice; assay: Effect on hyperlocomotion induced by thyrotropin releasing hormone (TRH); settings: s.c.
Procedure: Effect on hyperlocomotion induced by thyrotropin releasing hormone (TRH)
Male ddy mice (weighing 18 to 24.5 g) were used. The mice were placed into a transparent acrylic resin cage (26×37×11 cm) installed on Animex meter. Before experiment, the mice were allowed to habituate for 2 hours in the cage to fully lower the activity of the mice. After the completion of habituation, peptide A, peptide B or a diluent (physiological saline containing 1 mg/ml of sodium hydrogencarbonate) serving as a control was subcutaneously given to the mice. Thirty minutes thereafter, 5 mg/kg of TRH was intraperitoneally given to the animals. The activity counts during the period of 60 minutes following the administration of TRH was measured. Student's t-test was resorted to for statistical treatment.

[5] = test system: male Wister rats; assay: Effect on metabolism of amine in the brain; settings: 1 mg/kg s.c., 1 hour after dosing
Procedure: Effect on metabolism of amine in the brain
Unfasted male Wister rats (weighing 180 to 220 g) were used. Peptide A or peptide B was subcutaneously given to the animal at a dose of 1 mg/kg, the head was irradiated with microwave 1 hour thereafter, and amine metabolite was extracted from the brain. First, removed tissues were homogenized with 1M formic acid and centrifuged at 20,000×g for 20 minutes, and the supernatant (1 ml) was shaken with 5 ml of ethyl acetate. The 3,4-dihydroxyphenylacetic acid (DOPAC), homovanillic acid (HVA) and 5-hydroxyindoleacetic acid (5-HIAA) in the ethyl acetate layer were analyzed by high-performance liquid chromatography under the following conditions. Chemcosorb, 5-ODS, 20 cm×4.6 mm I.D. was used for a separating column, and a mobile phase (0.1M KH2 PO4 (pH 5.0)-5 mM EDTA-2Na-5% acetonitrile) was passed through the column at a flow rate of 1 ml/min. The electrochemical detector was set to an oxidation potential of +0.8 V.

[6] = test system: male Wister rats; assay: Effect on the fixed ratio responding in rats (FR20); settings: s.c., 15 min before a 20 min session, dose giving count 50 with control as 100
Procedure: Effect on the fixed ratio responding in rats
The test was conducted according to the method described in Ahlenius S. and Engel J., Eur. J. Pharm., Vol. 15, 187-192 (1971).
Male Wister rats (weighing 240 to 320 g) were placed into Skinner box (product of Bil-Medika Co., Ltd., Japan, adapted to give a feed when a lever within the box is pressed) and made to learn how to take the food. In this test, one feed was given to the rats when the lever was pressed 20 times, i.e., fixed ratio (FR) 20. The rats showing stable FR20 response were divided into groups each including four rats.
Physiological saline (containing 1 mM of sodium hydrogencarbonate) containing a specified amount of a test compound was subcutaneously given to the rats of one group in a volume of 0.1 ml/100 g. (Physiological saline containing the above-mentioned amount of sodium hydrogencarbonate only was given to the control group). Fifteen minutes after the administration, the test animals were placed in the Skinner box, and the number of times the animals took the feed for 20 minutes was counted. The dose at which the count gained by the group of animals was 50, namely, ED50 value, was determined, with the count gained by the control group calculated as 100. The same procedure as above was repeated with use of the other test compounds.

[7] = test system: Male ICR mice; assay: Inhibitory effect on hyperlocomotion induced by administration of methylphenidate; settings: s.c. with methylphenidate 10 mg/kg s.c., 1 hour after administration, 50 with control as 100
Procedure: Inhibitory effect on hyperlocomotion induced by administration of methylphenidate
Male ICR mice (weighing 24 to 30 g) were divided into groups, each including 10 mice. To one group of mice were subcutaneously given 10 mg/kg of methylphenidate and 0.1 ml/10 g of a saline solution of a specified amount of a test compound and 1 mM of sodium hydrogencarbonate. One hour after the administration, the test animals were checked for hyperlocomotion, which was measured with use of a device for measuring locomotion of small animals (wherein the motion of an animal shifts the center of graavity of the device to actuate a microswitch for the measurement of the amount of motion, see Folia Pharmacologica Japonica, 74, 629-639 (1978). For a control group, the same procedure as above was repeated except that the saline solution given was free from any test compound. The concentration of the test compound at which the result achieved by the group of animals was 50, namely, ED50 value, was determined, with the measurement obtained by the control group calculated as 100. The other compounds were tested in the same manner as above.

[8] = test system: Male ddy mice; assay: Effect on climbing behavior induced by apomorphine (Pharmacological Test 7); settings: control 9.8 ± 0.7
Procedure: Effect on climbing behavior induced by apomorphine
Male ddy mice (weighing 20 to 30 g) were used, with 10 mice in each group. Each mouse was placed into a cylindrical cage, 12 cm in diameter and 14 cm in height, made up of vertical rods of 2 mm in diameter spaced apart at a distance of 10 mm in a circular arrangement. The mouse was allowed to stand therein for 2 hours. Physiological saline containing a specified amount of a test compound (and 1 mM of sodium hydrogencarbonate) was subcutaneously given to one group of mice in a volume of 1 ml/10 g. (The same dose of saline only was given to a control group). […] The test was carried out in soundproof compartments.
0: All the four legs are on the floor.
2: At least three legs are on rods.
The other compounds were tested in the same manner as above. The test was carried out in soundproof compartments. Student's t-test was resorted to for satistical treatment.

CSCC[C@H](NC(=O)[C@H](Cc1ccc(OS(=O)(=O)O)cc1)NC(=O)[C@@H](N)CC(=O)O)C(=O)NCC(=O)N[C@@H](Cc1c[nH]c2ccccc12)C(=O)N[C@@H](CCSC)C(=O)N[C@@H](CC(=O)O)C(=O)N[C@@H](Cc1ccccc1)C(N)=O [CCK-8, Asp--Tyr(SO3 H)--Met--Gly--Trp--Met--Asp--Phe--NH2]
Induction of catalepsy (side effect, in words) [1]: induces catalepsy
Induction of yawning behavior (in words) [2]: induces no yawning behavior whatsoever
Effect on yawning behavior induced by apomorphine (in words) [3]: is not inhibited by CCK-8

CSCC[C@H](NC(=O)[C@H](Cc1ccc(OS(=O)(=O)O)cc1)NC(=O)[C@H](CC(=O)O)NC(=O)CCCC(=O)O)C(=O)NCC(=O)N[C@@H](Cc1c[nH]c2ccccc12)C(=O)N[C@@H](CCSC)C(=O)N[C@@H](CC(=O)O)C(=O)N[C@@H](Cc1ccccc1)C(N)=O [Peptide A, Glt--Asp--Tyr(SO3 H)--Met--Gly--Trp--Met--Asp--Phe--NH2]
Effect on TRH-induced hyperlocomotion (in words) [4]: inhibit the hyperlocomotion induced by TRH
Increase of DOPAC content in hypothalamus [5]: about 60%
Influence on content of metabolite (DOPAC, HVA, 5-HIAA) in frontal cortex, limbic forebrain, and striatum [5]: Neither of peptide A and peptide B was found to influence

CSCC[C@H](NC(=O)[C@H](Cc1ccc(OS(=O)(=O)O)cc1)NC(=O)[C@H](CC(=O)O)NC(=O)[C@@H]1CCC(=O)N1)C(=O)NCC(=O)N[C@@H](Cc1c[nH]c2ccccc12)C(=O)N[C@@H](CCSC)C(=O)N[C@@H](CC(=O)O)C(=O)N[C@@H](Cc1ccccc1)C(N)=O [Peptide B, pGlu--Asp--Tyr(SO3 H)--Met--Gly--Trp--Met--Asp--Phe--NH2]
Effect on TRH-induced hyperlocomotion (in words) [4]: inhibit the hyperlocomotion induced by TRH
Increase of DOPAC content in hypothalamus [5]: about 60%
Influence on content of metabolite (DOPAC, HVA, 5-HIAA) in frontal cortex, limbic forebrain, and striatum [5]: Neither of peptide A and peptide B was found to influence

CSCC[C@H](NC(=O)[C@H](Cc1ccc(OS(=O)(=O)O)cc1)NC(=O)CCCC(=O)O)C(=O)NCC(=O)N[C@@H](Cc1c[nH]c2ccccc12)C(=O)N[C@@H](CCSC)C(=O)N[C@@H](CC(=O)O)C(=O)N[C@@H](Cc1ccccc1)C(N)=O [Peptide E, Glt--Tyr(SO3 H)--Met--Gly--Trp--Met--Asp--Phe--NH2] (HELM PEPTIDE1{[O=C(O)CCCC(=O)[*:2]].[O=C([C@H](Cc1ccc(OS(=O)(=O)O)cc1)N[*:1])[*:2]].M.G.W.M.D.F.[am]}$$$$V2.0)
ED50, inhibition of FR20 responding [6]: 0.004 mg/kg

Pht--Tyr(SO3 H)--Met--Gly--Trp--Met--Asp--Phe--NH2 [Peptide F]
ED50, inhibition of methylphenidate-induced hyperlocomotion [7]: 0.2513 mg/kg
ED50, inhibition of FR20 responding [6]: 0.0167 mg/kg
Average: Mean ± S.E. (total of 7 scores), climbing behavior ([8]; 0.1 mg/kg s.c.): 7.7 ± 0.6
Average: Mean ± S.E. (total of 7 scores), climbing behavior ([8]; 0.3 mg/kg s.c.): 8.0 ± 0.8
Average: Mean ± S.E. (total of 7 scores), climbing behavior ([8]; 1.0 mg/kg s.c.): 6.8 ± 0.8
